How the values were obtained:
[1] = target: 40 binding sites (other than the D1 site); assay: Screen for activity at 40 binding sites; details: 40 binding sites other than D1, all except D2 and alpha2 adrenergic; read-out: IC50 at binding sites found inactive
Description: (§1) […]. […] […].

[2] = Half-life and duration of functional activity; assay type: in vivo
[3] = Pharmacokinetic studies in rodents and non-human primates; assay type: in vivo
Description: […]. […] […]

[4] = tested on: rats with scopolamine-induced deficits; assay: Passive avoidance in rats, scopolamine-induced amnesia; assay type: in vivo, rat
Procedure: The protocol summarized below is one of many variants of the passive avoidance procedure using scopolamine-induced amnesia (for review see Rush, Behav Neural Biol 50:255-274, 1988). This procedure is commonly used to identify drugs that may be useful in treating cognitive deficits, particularly those observed in AD. The effects of the D
Testing was conducted in standard 2-compartment rectangular passive avoidance chambers (San Diego Instruments, San Diego, Calif.) with black plexiglas sides and grid floors. The light compartment of the chambers were illuminated by a 20 W lamp located in this compartment; the dark side of the chambers will be shielded from light, except for light penetrating the opening connecting the two compartments of each chamber.
On training day, groups of 8 rats were injected with scopolamine (3.0 mg/kg, ip) or vehicle (1.0 ml/kg) 30 min prior to training. Scopolamine served as the dementing agent in this experiment. Ten min prior to training, each group of rats received a second injection of vehicle or a dose of DHX. At the end of the pretreatment interval, each rat was placed individually in the light compartment facing away from the opening between compartments. The latency for each rat to travel from the light to the dark compartment was measured up to a maximum of 300 sec; any animal not entering the dark compartment within 300 sec was discarded from the test group. Once the animal entered the dark compartment completely, a 1.0 milliampere, 3.0 sec scrambled shock was delivered to the entire grid floor. The animal was allowed to remain in the dark compartment during this 3.0 sec period or to escape to the light compartment. Each rat was then returned immediately to its home cage.
Twenty-four hr after training, each rat was tested in the same apparatus for retention of the task (to remain passively in the light compartment). […] The latency for animals to enter the dark compartment on test day (step-through latency) was recorded up to a maximum of 600 sec. Each animal was used only once in a single experiment.
A one-way analysis of variance (ANOVA) and Newman-Keuls post-hoc comparisons were used to identify significant deficits in passive avoidance responding produced by scopolamine and their reversal by DHX; a p value of less than 0.05 was used as the level of significance.

[5] = target: alpha2 adrenergic receptors; assay: Binding site screen, alpha2 adrenergic receptors
Description: as §1

D3 receptor = D3 receptor (Rattus norvegicus, UniProt P19020); assay: biochemical
[6] = tested on: dopamine release or reuptake; assay: Dopamine release and reuptake
Description: as §1

adenylate cyclase = assay: Stimulation of adenylate cyclase in brain tissue; assay type: biochemical; details: rat, monkey, and human brain tissue
Description: as §1

D1A receptor (C-6-mD1A) = target: T1, D1A receptor (C-6-mD1A) (Macaca mulatta, UniProt O77680); assay: Binding, cloned D1A receptor in C-6 cells; design: species or system monkey (rhesus macaque); details: monkey receptor, read-out: Cloned Receptors D1A C-6 (monkey)
T1 construct: expressed in transfected cells; host or cells: C-6 glioma cells
Procedure: Cells were grown in DMEM-H medium containing 4,500 mg/l glucose, L-glutamine, 5% fetal bovine serum and 600 ng/ml G418. […] Cells were plated into 24-well plates and allowed to grow to confluence (usually 2-4 days), after which they were used for either dose-response or desensitization studies. For the binding studies, 75-cm^2 flasks of confluent cells were treated as described below. All studies (functional and receptor binding) used cells from passages 2 to 20.
Flasks of cells in the same passage were rinsed with 5 ml hypoosmotic buffer (1 mM HEPES, 2 mM EGTA, pH 7.4), and then incubated with 7 ml hypoosmotic buffer for 5 to 10 min at 4° C. Cells were then scraped off the bottom of the flask with a rubber policeman, collected into 50-ml tubes and centrifuged at 28,000×g at 4° C. for 20 min. […] Aliquots contained approximately 1 mg/ml of protein, as measured with the BCA protein assay reagent (Pierce, Rockford, Ill.). […]
For dose-response studies, data were calculated for each sample and expressed initially as pmol cAMP per mg protein per min. […] Normalized dose-response curves were analyzed by nonlinear regression with an algorithm for sigmoid curves in the curve-fitting program Prism (Graphpad Inc., San Diego, Calif.). […] For competition binding studies, the raw data (expressed in dpm) were analyzed by nonlinear regression with a sigmoid dose-response model in Prism. […]

monkeys = details: young, intact monkeys; cited from earlier work
[7] = tested on: acetylcholine release in striatum and frontal cortex; assay: Acetylcholine release by in vivo microdialysis in conscious, freely-moving rats; design: species or system rat
MPTP-treated monkeys = assay: Cognitive deficits in chronic low dose MPTP-treated monkeys, delayed response task; assay type: in vivo, monkey
Description: Two adult male Macaca fascicularis monkeys (4.7 and 5.7 kg initial body weight) and 1 female Macaca nemistrina monkey (5.0 kg initial body weight) were trained to perform a delayed response task. Briefly, animals were trained and tested on delayed response while seated in a restraining chair placed inside a sound attenuating modified Wisconsin General Test Apparatus. The monkey sat behind an opaque screen that when raised, allowed access to a sliding tray that contained recessed food wells with identical sliding white Plexiglas covers that served as stimulus plaques that could be displaced by the animal to obtain rewards (e.g. raisins). Monkeys were trained to retrieve a raisin from one of the food wells after observing the experimenter bait the well. […]
Training was accomplished with a non-correction procedure, beginning with a 0 s delay and progressing to a 5 s delay. […] A response was scored a “mistake” if the monkey made its response choice to a well that was not baited with reward. […]
Compounds and/or compositions described herein are tested by dissolving in physiological saline containing 0.2% ascorbate and administering subcutaneously. Ilustratively, compounds and/or compositions described herein are used at 0.3, 0.6, and 0.9 mg/kg doses, calculated as the free base where appropriate. The order of dose administration is determined randomly. […]

D4 receptor = target: T2, D4 receptor (Rattus norvegicus, UniProt P30729); assay: Binding, cloned D4 receptor in CHO cells; design: expressed in transfected cells; host or cells: CHO cells; details: read-out: Cloned Receptors D4 CHO (rat)
T2 sequence (P30729 1-387): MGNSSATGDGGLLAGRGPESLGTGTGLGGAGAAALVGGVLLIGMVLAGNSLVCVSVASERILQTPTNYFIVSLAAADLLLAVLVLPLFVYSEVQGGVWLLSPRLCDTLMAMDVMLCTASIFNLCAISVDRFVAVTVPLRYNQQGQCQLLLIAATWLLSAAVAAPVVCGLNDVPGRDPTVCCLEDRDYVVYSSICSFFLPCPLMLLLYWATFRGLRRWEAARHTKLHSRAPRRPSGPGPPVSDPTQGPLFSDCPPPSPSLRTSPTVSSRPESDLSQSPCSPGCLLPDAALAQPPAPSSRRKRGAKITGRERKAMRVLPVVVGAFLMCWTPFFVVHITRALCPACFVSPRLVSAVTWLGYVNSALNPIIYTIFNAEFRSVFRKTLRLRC

D3 receptor, sequence (P19020 whole entry): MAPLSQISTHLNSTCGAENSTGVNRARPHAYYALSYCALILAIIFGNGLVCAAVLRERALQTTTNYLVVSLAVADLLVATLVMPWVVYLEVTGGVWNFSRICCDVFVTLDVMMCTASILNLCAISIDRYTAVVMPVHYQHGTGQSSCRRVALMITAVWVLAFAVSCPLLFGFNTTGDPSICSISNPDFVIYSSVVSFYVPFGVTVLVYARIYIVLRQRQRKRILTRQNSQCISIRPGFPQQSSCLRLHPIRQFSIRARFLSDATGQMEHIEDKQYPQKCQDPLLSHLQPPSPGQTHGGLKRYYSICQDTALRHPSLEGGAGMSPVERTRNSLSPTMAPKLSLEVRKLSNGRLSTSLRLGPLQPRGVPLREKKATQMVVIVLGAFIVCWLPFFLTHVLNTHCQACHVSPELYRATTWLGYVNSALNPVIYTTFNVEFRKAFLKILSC
T1 sequence (O77680 whole entry): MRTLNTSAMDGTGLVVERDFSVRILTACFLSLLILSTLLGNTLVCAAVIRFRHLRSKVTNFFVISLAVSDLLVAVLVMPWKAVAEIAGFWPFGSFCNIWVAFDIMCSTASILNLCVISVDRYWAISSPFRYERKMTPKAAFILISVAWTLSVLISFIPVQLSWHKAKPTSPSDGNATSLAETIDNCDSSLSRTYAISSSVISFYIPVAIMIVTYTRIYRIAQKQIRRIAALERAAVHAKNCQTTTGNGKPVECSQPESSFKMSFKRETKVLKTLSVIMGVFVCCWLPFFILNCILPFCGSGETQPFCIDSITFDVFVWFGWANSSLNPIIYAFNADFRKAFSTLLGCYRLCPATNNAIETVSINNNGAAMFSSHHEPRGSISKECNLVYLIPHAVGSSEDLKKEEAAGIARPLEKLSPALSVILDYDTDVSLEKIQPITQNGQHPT

Structure (SMILES): Cl.Oc1cc2c(cc1O)[C@@H]1c3ccccc3CN[C@H]1CC2 (relative stereo) [Compound 6a, Trans-10,11-dihydroxy-5,6,6a,7,8,12b-hexahydrobenzo[a]phenanthridine hydrochloride]
- IC50 [1]: > 10 µM
- Functional half-life ([2]; given subcutaneously): about 3 hr
- half-life ([2]; in vivo, iv, given intravenously, read-out: Half-life): ~30 min
- Clearance from plasma ([3]; in vivo): cleared rapidly
- Blood levels ([3]; rodents and non-human primates, following iv, sc and po administration): significant blood levels
- Shape of dose-response curve in passive avoidance [4]: inverted U-shaped dose-response curve
- Scopolamine-induced deficits in step-through latency ([4]; dose of 0.3 mg/kg, scopolamine 3.0 mg/kg ip): significantly improved
- Increase in step-through latency ([4]; doses of 0.1 and 1.0 mg/kg, scopolamine 3.0 mg/kg ip): not statistically-significant
- Deficits induced by scopolamine ([4]; narrow range of doses (0.1, 0.3, and 1.0 mg/kg ip)): significantly improved
- IC50 [5]: ~230 nM
- Ki (D3 receptor): 18 nM
- Releasing dopamine or blocking its reuptake [6]: inactive
- Efficacy in stimulating adenylate cyclase in brain tissue (adenylate cyclase): full efficacy
- Ki (D1A receptor (C-6-mD1A)): 2.2 nM
- Spatial working memory (monkeys): produced improvements
- Acetylcholine release [7]: dose-related increases
- Cognitive deficits produced by chronic low dose MPTP treatment (MPTP-treated monkeys): improve cognitive deficits
- Ki (D4 receptor): 13 nM

Source: US20070155720A1, “Co-administration of dopamine-receptor binding compounds” (DarPharma, Inc., priority 2003, published 2007)
